{"source": "paper PMC9405123", "about": "“Design, Synthesis and Mechanistic Studies of Novel Isatin-Pyrazole Hydrazone Conjugates as Selective and Potent Bacterial MetAP Inhibitors” (Antibiotics, 2022)", "key": {"B. subtilis [1]": {"test_system": "B. subtilis", "test": "Minimum inhibitory concentration (broth dilution)", "format": "cell-based", "conditions": "Bacillus subtilis, alone"}, "B. subtilis [2]": {"test_system": "B. subtilis", "test": "Growth inhibition screening (broth dilution)", "format": "cell-based, Bacillus subtilis", "conditions": "Bacillus subtilis", "description": "(§1) In vitro screening of the compounds (PS1–14) was performed to assess the antibacterial activity against three Gram-positive (Staphylococcus aureus, Enterococcus faecalis and Bacillus subtilis,) and three Gram-negative (Pseudomonas aeruginosa, Klebsiella pneumonia and Escherichia coli) bacterial strains using the standard NCCLS broth dilution assay. The study’s standard drugs were ciprofloxacin (CIP) and ampicillin (AMP). Compounds were dissolved in a polar solvent (DMSO) and distributed into a 96-well plate in 200 µL of nutrient broth medium, with a final concentration of the compounds […] in each well. The bacterial cells (about 2.5 × 10^5 cells/mL) were inoculated into each well and incubated at 37 °C overnight. After incubation, the growth was measured by turbidity of the culture at 590 nm by spectrophotometer."}, "K. pneumoniae [3]": {"test_system": "K. pneumoniae", "test": "Minimum inhibitory concentration (broth dilution)", "format": "cell-based, Klebsiella pneumonia", "conditions": "alone"}, "S. aureus [4]": {"test_system": "S. aureus", "test": "Minimum inhibitory concentration (broth dilution)", "format": "cell-based", "conditions": "Staphylococcus aureus, alone"}, "K. pneumoniae [5]": {"test_system": "K. pneumoniae", "test": "Growth inhibition screening (broth dilution)", "format": "cell-based, Klebsiella pneumonia", "conditions": "Klebsiella pneumoniae", "description": "as §1"}, "E. coli [6]": {"test_system": "E. coli", "test": "Minimum bactericidal concentration", "format": "cell-based, Escherichia coli"}, "E. coli [7]": {"test_system": "E. coli", "test": "Minimum inhibitory concentration (broth dilution)", "format": "cell-based, Escherichia coli", "conditions": "Escherichia coli, alone, read-out: MIC"}, "S. aureus [8]": {"test_system": "S. aureus", "test": "Minimum bactericidal concentration", "format": "cell-based, Staphylococcus aureus"}, "MtMetAP1c": {"biological_target": "T1, MtMetAP1c (Mycobacterium tuberculosis, UniProt P9WK19)", "T1 construct": "made in house", "T1 sequence (P9WK19 whole entry)": "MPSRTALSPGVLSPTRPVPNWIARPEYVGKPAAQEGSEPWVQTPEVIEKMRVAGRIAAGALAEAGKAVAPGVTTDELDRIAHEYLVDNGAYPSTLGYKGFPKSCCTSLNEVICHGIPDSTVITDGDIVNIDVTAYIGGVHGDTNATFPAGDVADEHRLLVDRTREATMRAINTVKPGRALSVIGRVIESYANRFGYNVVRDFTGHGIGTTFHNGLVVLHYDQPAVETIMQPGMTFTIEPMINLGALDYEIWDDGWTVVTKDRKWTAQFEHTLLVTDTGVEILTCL", "test": "MetAP enzyme inhibition, Morrison Ki (Met-AMC fluorescence)", "format": "biochemical, M. tuberculosis", "conditions": "Morrison Ki method", "description": "MetAP appears to serve a vital role in the co- or post-translational modification of proteins, making it essential for bacterial cell metabolism and survival. In this study, all enzymes, which were used for this study, including MtMetAP1c (M. tuberculosis), EfMetAP1a (E. faecalis), SpMetAP1a (S. pneumoniae) and HsMetAP1b (H. sapiens) enzymes, were expressed and purified in our lab as previously reported. All compounds prepared 10 mM stocks in DMSO and were used for enzyme inhibition studies. The concentration of each enzyme is adjusted such that they have similar reaction rates (HsMetAp1b, 1 µM; SpMetAP1a, 5 µM; EfMetAP1a, 1 µM; MtMetAP1c, 1 µM;) as reported earlier. All assays were performed in […] reaction containing 50 mM HEPES (pH 7.5 for SpMetAP1a and HsMetAP1b; 8.0 for EfMetAP1a, MtMetAP1c, […]), 150 mM NaCl, and CoCl2 (three molar equivalents of corresponding enzymes). The reaction was started by adding 50 μM L-Methionine 7-amido-4-methyl coumarin (Met-AMC) and continuously monitoring the fluorescence of released 7-amino-4-methyl coumarin (AMC) (380 nm excitation and 460 nm emission) in a microplate multimode reader (TECAN, Austria). The maximum percentage of inhibition against enzymes is calculated at […] compound concentration. […] The Ki values were determined according to the Morrison method using three different concentrations of substrates and ten different concentrations of the inhibitor. All experiments were performed in triplicate. GraphPad Prism version 8.0.0 (San Diego, CA, USA) was used to determine all the kinetic parameters."}, "EfMetAP1a": {"biological_target": "EfMetAP1a (Enterococcus faecalis, UniProt Q832M5)", "sequence (Q832M5 entry or part of it)": "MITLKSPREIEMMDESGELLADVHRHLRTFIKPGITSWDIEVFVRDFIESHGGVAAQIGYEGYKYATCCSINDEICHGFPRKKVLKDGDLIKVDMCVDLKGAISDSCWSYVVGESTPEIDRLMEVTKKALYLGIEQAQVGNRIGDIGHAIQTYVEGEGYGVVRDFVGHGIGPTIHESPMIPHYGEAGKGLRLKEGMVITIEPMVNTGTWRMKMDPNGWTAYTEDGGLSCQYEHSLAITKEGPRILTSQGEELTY", "test": "MetAP enzyme inhibition, Morrison Ki (Met-AMC fluorescence)", "format": "biochemical", "conditions": "Morrison Ki method"}, "S. aureus [9]": {"test_system": "S. aureus", "test": "Growth inhibition screening (broth dilution)", "format": "cell-based, Staphylococcus aureus", "conditions": "Staphylococcus aureus", "description": "as §1"}, "P. aeruginosa [10]": {"test_system": "P. aeruginosa", "test": "Minimum bactericidal concentration", "format": "cell-based, Pseudomonas aeruginosa"}, "E. coli [11]": {"test_system": "E. coli", "test": "Growth inhibition screening (broth dilution)", "format": "cell-based, Escherichia coli", "conditions": "Escherichia coli", "description": "as §1"}, "HsMetAP1b": {"biological_target": "T2, HsMetAP1b (Homo sapiens, UniProt P53582)", "T2 construct": "made in house", "test": "MetAP enzyme inhibition, Morrison Ki (Met-AMC fluorescence)", "format": "biochemical, H. sapiens", "conditions": "Morrison Ki method"}, "B. subtilis [12]": {"test_system": "B. subtilis", "test": "Minimum bactericidal concentration", "format": "cell-based, Bacillus subtilis"}, "P. aeruginosa [13]": {"test_system": "P. aeruginosa", "test": "Minimum inhibitory concentration (broth dilution)", "format": "cell-based", "conditions": "Pseudomonas aeruginosa, alone"}, "E. faecalis [14]": {"test_system": "E. faecalis", "test": "Minimum bactericidal concentration", "format": "cell-based, Enterococcus faecalis"}, "P. aeruginosa [15]": {"test_system": "P. aeruginosa", "test": "Growth inhibition screening (broth dilution)", "format": "cell-based, Pseudomonas aeruginosa", "conditions": "Pseudomonas aeruginosa", "description": "as §1"}, "SpMetAP1a": {"biological_target": "SpMetAP1a (Streptococcus pneumoniae, UniProt Q8DPV1)", "sequence (Q8DPV1 entry or part of it)": "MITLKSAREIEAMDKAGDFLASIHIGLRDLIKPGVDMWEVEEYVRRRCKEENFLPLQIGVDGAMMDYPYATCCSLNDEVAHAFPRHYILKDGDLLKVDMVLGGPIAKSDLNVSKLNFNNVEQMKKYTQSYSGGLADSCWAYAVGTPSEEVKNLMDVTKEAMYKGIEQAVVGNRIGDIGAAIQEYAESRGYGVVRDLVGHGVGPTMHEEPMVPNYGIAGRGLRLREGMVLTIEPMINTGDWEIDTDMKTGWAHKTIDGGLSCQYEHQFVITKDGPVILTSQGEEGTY", "test": "MetAP enzyme inhibition, Morrison Ki (Met-AMC fluorescence)", "format": "biochemical", "conditions": "Morrison Ki method"}, "E. faecalis [16]": {"test_system": "E. faecalis", "test": "Growth inhibition screening (broth dilution)", "format": "cell-based, Enterococcus faecalis", "conditions": "Enterococcus faecalis", "description": "as §1"}, "E. faecalis [17]": {"test_system": "E. faecalis", "test": "Minimum inhibitory concentration (broth dilution)", "format": "cell-based", "conditions": "Enterococcus faecalis, alone"}, "K. pneumoniae [18]": {"test_system": "K. pneumoniae", "test": "Minimum bactericidal concentration", "format": "cell-based, Klebsiella pneumonia"}}, "note": "Where two headings read alike, the source gives them in different places.", "data": [{"compound": "O=C1Nc2cc(Cl)ccc2/C1=N\\NC(=O)c1cc(-c2cccc(Br)c2)n[nH]1", "note": "[PS3, (E)-3-(3-Bromophenyl)-N′-(6-Chloro-2-Oxoindolin-3-Ylidene)-1H-Pyrazole-5-Carbohydrazide]", "values": [{"measurement": "MIC", "setting": "B. subtilis [1]", "value": 64, "unit": "µg/mL"}, {"measurement": "inhibition at 250 µg/mL", "setting": "B. subtilis [2]", "value": 89, "unit": "%"}, {"measurement": "MIC", "setting": "K. pneumoniae [3]; Klebsiella pneumoniae, read-out: MIC", "value": 32, "unit": "µg/mL"}, {"measurement": "MIC", "setting": "K. pneumoniae [3]", "value": 64, "unit": "µg/mL"}, {"measurement": "MIC", "setting": "S. aureus [4]", "value": 128, "unit": "µg/mL"}, {"measurement": "inhibition at 250 µg/mL", "setting": "K. pneumoniae [5]", "value": 97, "unit": "%"}, {"measurement": "melting point", "value": "182 to 185", "unit": "°C"}, {"measurement": "MBC/MIC Ratio (R*)", "setting": "E. coli [6]", "value": 2}, {"measurement": "MBC", "setting": "E. coli [6]; Escherichia coli", "value": 256, "unit": "µg/mL"}, {"measurement": "MIC", "setting": "E. coli [7]", "value": 128, "unit": "µg/mL"}, {"measurement": "MBC/MIC Ratio (R*)", "setting": "S. aureus [8]", "value": 1}, {"measurement": "MBC", "setting": "S. aureus [8]; Staphylococcus aureus", "value": 128, "unit": "µg/mL"}, {"measurement": "Ki", "setting": "MtMetAP1c", "value": "2.32 ± 0.28", "unit": "µM"}, {"measurement": "Ki", "setting": "EfMetAP1a", "value": "4.63 ± 0.87", "unit": "µM"}, {"measurement": "inhibition at 250 µg/mL", "setting": "S. aureus [9]", "value": 64, "unit": "%"}, {"measurement": "MBC/MIC Ratio (R*)", "setting": "P. aeruginosa [10]", "value": 8}, {"measurement": "MBC", "setting": "P. aeruginosa [10]; Pseudomonas aeruginosa", "value": 256, "unit": "µg/mL"}, {"measurement": "inhibition at 250 µg/mL", "setting": "E. coli [11]", "value": 89, "unit": "%"}, {"measurement": "Ki", "setting": "HsMetAP1b", "value": "332 ± 10.9", "unit": "µM"}, {"measurement": "MBC/MIC Ratio (R*)", "setting": "B. subtilis [12]", "value": 2}, {"measurement": "MBC", "setting": "B. subtilis [12]; Bacillus subtilis", "value": 128, "unit": "µg/mL"}, {"measurement": "MIC", "setting": "P. aeruginosa [13]", "value": 32, "unit": "µg/mL"}, {"measurement": "MBC/MIC Ratio (R*)", "setting": "E. faecalis [14]", "value": 2}, {"measurement": "MBC", "setting": "E. faecalis [14]; Enterococcus faecalis", "value": 256, "unit": "µg/mL"}, {"measurement": "inhibition at 250 µg/mL", "setting": "P. aeruginosa [15]", "value": 90, "unit": "%"}, {"measurement": "Ki", "setting": "SpMetAP1a", "value": "1.79 ± 0.08", "unit": "µM"}, {"measurement": "inhibition at 250 µg/mL", "setting": "E. faecalis [16]", "value": 60, "unit": "%"}, {"measurement": "MIC", "setting": "E. faecalis [17]", "value": 128, "unit": "µg/mL"}, {"measurement": "MBC/MIC Ratio (R*)", "setting": "K. pneumoniae [18]", "value": 8}, {"measurement": "MBC", "setting": "K. pneumoniae [18]; Klebsiella pneumoniae", "value": 512, "unit": "µg/mL"}]}]}
